Laboratory results reported in patent US5480987A, “2-substituted alkyl-3-carboxy carbapenems as antibiotics and a method of producing them” (American Cyanamid Company, priority 1994, dated 1996).
Structures can show the parent of a compound that is named as a salt.

Assays:
Format in all cases: cell-based
[1] = system: E. coli ATCC 25922; assay: In vitro antibacterial activity, MIC by tube dilution, Ec(1); settings: Nutrient Broth; for MIC: Escherichia coli, ATCC25922, overnight incubation at 37° C., read-out: Minimum Inhibitory Concentration (MIC)
[2] = system: E. coli ATCC 35218; assay: In vitro antibacterial activity, MIC by tube dilution, Ec(2); settings: Nutrient Broth; for MIC: Escherichia coli, ATCC35218, overnight incubation at 37° C., read-out: Minimum Inhibitory Concentration (MIC)
[3] = system: Staph. aureus ATCC 29213; assay: In vitro antibacterial activity, MIC by tube dilution, SA(1); settings: Nutrient Broth; for MIC: Staphylococcus aureus, ATCC29213, overnight incubation at 37° C., read-out: Minimum Inhibitory Concentration (MIC)
[4] = system: Staph. aureus ACCC 25923; assay: In vitro antibacterial activity, MIC by tube dilution, SA(2); settings: Nutrient Broth; for MIC: Staphylococcus aureus, ACCC25923, overnight incubation at 37° C., read-out: Minimum Inhibitory Concentration (MIC)
[5] = system: Ser. marceslens; assay: In vitro antibacterial activity, MIC by tube dilution, SM; settings: overnight incubation at 37° C., Nutrient Broth; for MIC: read-out: Minimum Inhibitory Concentration (MIC)
[6] = system: Ent. cloacae; assay: In vitro antibacterial activity, MIC by tube dilution, Ent C; settings: overnight incubation at 37° C., Nutrient Broth; for MIC: Enterobacter cloacae, read-out: Minimum Inhibitory Concentration (MIC)
[7] = system: E. Coli-OXA-2; assay: In vitro antibacterial activity of carbapenem, piperacillin and 1:1 combination; settings: single agent
Description: (§1) A sample of the carbapenems prepared in this invention is tested in combination with the penicillin Piperacillin. The enhanced combined synergistic antibacterial activity is representative of the anti β-lactamase properties of the carbapenems in this invention (Table 2).

[8] = system: E. Coli-OXA-4; assay: as above; settings: single agent
Description: as §1

[9] = system: E. Coli-OXA-5; assay: as above; settings: single agent
Description: as §1

[10] = system: E. Coli-OXA-7; assay: as above; settings: single agent
Description: as §1

[11] = system: Pseudomonas OXA-6; assay: as above; settings: single agent
Description: as §1

Row | SMILES | MIC [1] [µg/mL] | MIC [2] [µg/mL] | MIC [3] [µg/mL] | MIC [4] [µg/mL] | MIC [5] [µg/mL] | MIC [6] [µg/mL] | Minimum Inhibitory Concentration (MIC) ([1]; overnight incubation at 37° C.) [µg/mL] | Minimum Inhibitory Concentration (MIC) ([2]; overnight incubation at 37° C.) [µg/mL] | Minimum Inhibitory Concentration (MIC) ([3]; overnight incubation at 37° C.) [µg/mL] | Minimum Inhibitory Concentration (MIC) ([4]; overnight incubation at 37° C.) [µg/mL] | Minimum Inhibitory Concentration (MIC) [5] [µg/mL] | Minimum Inhibitory Concentration (MIC) [6] [µg/mL] | M.I.C. [7] [µg/mL] | M.I.C. [8] [µg/mL] | M.I.C. [9] [µg/mL] | M.I.C. [10] [µg/mL] | M.I.C. [11] [µg/mL]
1 | CC(O)C1C(=O)N2C(C(=O)O)=C(CS(=O)(=O)c3cccs3)CC12 (stereo not drawn) [Example 10, [5R-[5Alpha,6alpha(R*)]]-6-(1-hydroxyethyl)-3-[(2-thienylsulfonyl)methyl]-7-oxo-1-azabicyclo[3.2.0]-hept-2-ene-2-carboxylic acid, monosodium salt] | 1 | 1 | 0.06 | 0.06 | 32 | 32 |  |  |  |  |  |  |  |  |  |  | 
2 | COC(=O)C(Cl)=C1CC2C(C(C)O)C(=O)N2C1C(=O)[O-].[Na+] (stereo not drawn) [Example 44, (2R-[2Alpha,3(R* or S*),5alpha,6alpha(R*)]]-3-(1-chloro-2-methoxy-2-oxoethylidene)-6-(1-hydroxyethyl)-7-oxo-1-azabicyclo[3.2.0]heptane-2-carboxylic acid, monosodium salt] |  |  |  |  |  |  | 128 | 128 | 64 | 64 | 128 | 128 |  |  |  |  | 
3 | CC(O)C1C(=O)N2C(C(=O)O)=C(CS(=O)(=O)c3ccc(F)cc3)CC12 (stereo not drawn) [Example 48, [5R-[5Alpha,6alpha(R*)]]3-[[fluorophenyl)sulfonyl]methyl]-6-(1-hydroxyethyl)-7-oxo-1-azabicyclo[3.2.0]hept-2-ene-2-carboxylic acid, monosodium salt] | 8 | 8 | 0.06 | 0.06 | 32 | 64 |  |  |  |  |  |  | 32 | 32 | 32 | 16 | 128
4 | CCN1CCN(C(=O)N[C@@H](C(=O)N[C@@H]2C(=O)N3[C@@H]2SC(C)(C)[C@@H]3C(=O)O)c2ccccc2)C(=O)C1=O [Piperacillin, reference compound] |  |  |  |  |  |  |  |  |  |  |  |  | 16 | 8 | 2 | 128 | 32
